Results: ChEMBL document CHEMBL5344481, “Design, synthesis and biological evaluation of rhein-piperazine-furanone hybrids as potential anticancer agents” (RSC Med Chem, 2024)
Each block holds one compound with its values, some of them ahead of it.

What was measured:
A549 = assay: Anticancer activity against human A549 cells incubated for 48 hrs by MTT assay; format: functional, cell-based; conditions: A549, 48 h
[1] = Cytotoxicity against human WI-38 cells incubated for 48 hrs by MTT assay; format: toxicity, cell-based
[2] = Selectivity index, ratio of IC50 for human WI-38 cells to IC50 for human A549 cells; format: toxicity; conditions: WI-38 cells versus A549 cells, read-out: Ratio IC50
NCI-H460 [3] = assay: Anticancer activity against human NCI-H460 cells incubated for 48 hrs by MTT assay; format: functional, cell-based; conditions: NCI-H460, 48 h
PC-9 = assay: Anticancer activity against human PC-9 cells incubated for 48 hrs by MTT assay; format: functional, cell-based; conditions: PC-9, 48 h
Calu-1 = assay: Anticancer activity against human Calu-1 cells incubated for 48 hrs by MTT assay; format: functional, cell-based; conditions: Calu-1, 48 h
SK-BR-3 = assay: Anticancer activity against human SK-BR-3 cells incubated for 48 hrs by MTT assay; format: functional, cell-based; conditions: SK-BR-3, 48 h
SK-OV-3 = assay: Anticancer activity against human SK-OV-3 cells incubated for 48 hrs by MTT assay; format: functional, cell-based; conditions: SK-OV-3, 48 h
786-0 = assay: Anticancer activity against human 786-0 cells incubated for 48 hrs by MTT assay; format: functional, cell-based; conditions: 786-0, 48 h
Huh-7 = assay: Anticancer activity against human Huh-7 cells incubated for 48 hrs by MTT assay; format: functional, cell-based; conditions: Huh-7, 48 h
HCT-116 = assay: Anticancer activity against human HCT-116 cells incubated for 48 hrs by MTT assay; format: functional, cell-based; conditions: HCT-116, 48 h
HeLa = assay: Anticancer activity against human HeLa cells incubated for 48 hrs by MTT assay; format: functional, cell-based
[4] = Cytotoxicity against human MCF-10A cells incubated for 48 hrs by MTT assay; format: toxicity, cell-based
[5] = Cytotoxicity against human KGN cells incubated for 48 hrs by MTT assay; format: toxicity, cell-based
[6] = Cytotoxicity against human HEK-293T cells incubated for 48 hrs by MTT assay; format: toxicity, cell-based
[7] = Selectivity index, ratio of IC50 for human WI-38 cells to IC50 for human H460 cells; format: toxicity; conditions: WI-38 cells versus H460 cells, read-out: Ratio IC50
[8] = Selectivity index, ratio of IC50 for human WI-38 cells to IC50 for human Calu-1 cells; format: toxicity; conditions: WI-38 cells versus Calu-1 cells, read-out: Ratio IC50
[9] = Selectivity index, ratio of IC50 for human MCF-10A cells to IC50 for human SK-BR-3 cells; format: toxicity; conditions: MCF-10A cells versus SK-BR-3 cells, read-out: Ratio IC50
NCI-H460 [10] = assay: Induction of apoptosis in human NCI-H460 cells assessed as viable cells at 0.8 uM incubated for 48 hrs by Annexin V-FITC/PI staining based flow cytometry (reference value: 92.82 to 93.46 %); format: functional; conditions: read-out: Activity
NCI-H460 [11] = assay: Induction of apoptosis in human NCI-H460 cells assessed as […] cells at 0.8 uM incubated for 48 hrs by Annexin V-FITC/PI staining based flow cytometry (reference value: 4.31 to 4.76 %); format: functional
NCI-H460 [12] = assay: Induction of apoptosis in human NCI-H460 cells assessed as […] cells at 0.8 uM incubated for 48 hrs by Annexin V-FITC/PI staining based flow cytometry (reference value: 2.17 to 2.38 %); format: functional
NCI-H460 [13] = assay: Induction of apoptosis in human NCI-H460 cells assessed as necrotic cells at 0.8 uM incubated for 48 hrs by Annexin V-FITC/PI staining based flow cytometry (reference value: 0.02 to 0.06 %); format: functional
NCI-H460 [14] = assay: Induction of apoptosis in human NCI-H460 cells assessed as viable cells at 8 uM incubated for 48 hrs by Annexin V-FITC/PI staining based flow cytometry (reference value: 92.82 to 93.46 %); format: functional; conditions: read-out: Activity
NCI-H460 [15] = assay: Induction of apoptosis in human NCI-H460 cells assessed as […] cells at 8 uM incubated for 48 hrs by Annexin V-FITC/PI staining based flow cytometry (reference value: 4.31 to 4.76 %); format: functional
NCI-H460 [16] = assay: Induction of apoptosis in human NCI-H460 cells assessed as […] cells at 8 uM incubated for 48 hrs by Annexin V-FITC/PI staining based flow cytometry (reference value: 2.17 to 2.38 %); format: functional
NCI-H460 [17] = assay: Induction of apoptosis in human NCI-H460 cells assessed as necrotic cells at 8 uM incubated for 48 hrs by Annexin V-FITC/PI staining based flow cytometry (reference value: 0.02 to 0.06 %); format: functional
NCI-H460 [18] = assay: Induction of apoptosis in human NCI-H460 cells assessed as viable cells at 80 uM incubated for 48 hrs by Annexin V-FITC/PI staining based flow cytometry (reference value: 92.82 to 93.46 %); format: functional; conditions: read-out: Activity
NCI-H460 [19] = assay: Induction of apoptosis in human NCI-H460 cells assessed as […] cells at 80 uM incubated for 48 hrs by Annexin V-FITC/PI staining based flow cytometry (reference value: 4.31 to 4.76 %); format: functional
NCI-H460 [20] = assay: Induction of apoptosis in human NCI-H460 cells assessed as […] cells at 80 uM incubated for 48 hrs by Annexin V-FITC/PI staining based flow cytometry (reference value: 2.17 to 2.38 %); format: functional
NCI-H460 [21] = assay: Induction of apoptosis in human NCI-H460 cells assessed as necrotic cells at 80 uM incubated for 48 hrs by Annexin V-FITC/PI staining based flow cytometry (reference value: 0.02 to 0.06 %); format: functional
NCI-H460 [22] = assay: Induction of apoptosis in human NCI-H460 cells assessed as total apoptotic cells at 0.8 uM incubated for 48 hrs by Annexin V-FITC/PI staining based flow cytometry (reference value: 6.85 %); format: functional
NCI-H460 [23] = assay: Induction of apoptosis in human NCI-H460 cells assessed as total apoptotic cells at 8 uM incubated for 48 hrs by Annexin V-FITC/PI staining based flow cytometry (reference value: 6.85 %); format: functional
NCI-H460 [24] = assay: Induction of apoptosis in human NCI-H460 cells assessed as total apoptotic cells at 80 uM incubated for 48 hrs by Annexin V-FITC/PI staining based flow cytometry (reference value: 6.85 %); format: functional

SMILES: COC1OC(=O)C(Cl)=C1N1CCN(C(=O)c2cc(OC(C)=O)c3c(c2)C(=O)c2cccc(OC(C)=O)c2C3=O)CC1 (centres undefined)
IC50 (A549): 5.74 µM
IC50 at 48 h [1]: 69.3 µM
selectivity ratio [2]: 12
IC50 (NCI-H460 [3]): 4.35 µM
IC50 (PC-9): 5.78 µM
IC50 (Calu-1): 15.4 µM
IC50 (SK-BR-3): 19.1 µM
IC50 (SK-OV-3): 60.5 µM
IC50 (786-0): 20.7 µM
IC50 (Huh-7): 21 µM
IC50 (HCT-116): 13.8 µM
IC50 (HeLa): 30.5 µM
IC50 at 48 h [4]: 17 µM
IC50 at 48 h [5]: 76.4 µM
IC50 at 48 h [6]: 9.15 µM
selectivity ratio [7]: 16
selectivity ratio [8]: 5
selectivity ratio [9]: 1
viability at 0.8 µM (NCI-H460 [10]): 89.5%
Activity (NCI-H460 [11]): 5.09%
Activity (NCI-H460 [12]): 3.49%
Activity (NCI-H460 [13]): 0.12%
viability at 8 µM (NCI-H460 [14]): 61.1%
Activity (NCI-H460 [15]): 18.14%
Activity (NCI-H460 [16]): 18.88%
Activity (NCI-H460 [17]): 0.06%
viability at 80 µM (NCI-H460 [18]): 42.6%
Activity (NCI-H460 [19]): 25.81%
Activity (NCI-H460 [20]): 29.91%
Activity (NCI-H460 [21]): 0.07%
Activity (NCI-H460 [22]): 9.38%
Activity (NCI-H460 [23]): 37.72%
Activity (NCI-H460 [24]): 56.57%

SMILES: CC(=O)Oc1cccc2c1C(=O)c1c(OC(C)=O)cc(C(=O)N3CCN(C4=C(Br)C(=O)OC4O[C@@H]4CC5CCC4(C)C5(C)C)CC3)cc1C2=O (some centres undefined)
IC50 (A549): 86.7 µM
IC50 at 48 h [1]: 43.1 µM
selectivity ratio [2]: 1

SMILES: CC(=O)Oc1cccc2c1C(=O)c1c(OC(C)=O)cc(C(=O)N3CCN(C4=C(Cl)C(=O)OC4O[C@@H]4CC5CCC4(C)C5(C)C)CC3)cc1C2=O (some centres undefined)
IC50 (A549): 69.1 µM
IC50 at 48 h [1]: 34.7 µM
selectivity ratio [2]: 1

SMILES: Nc1ccn([C@@H]2O[C@H](CO)[C@@H](O)[C@@H]2O)c(=O)n1 [CYTARABINE]
IC50 at 48 h [1]: 493 µM
selectivity ratio [2]: 2

SMILES: O=C(O)c1cc(O)c2c(c1)C(=O)c1cccc(O)c1C2=O [RHEIN]
IC50 (A549): 266 µM
selectivity ratio [2]: 1

Now from value to compound, other results behind:

IC50 (A549): 46.9 µM
SMILES: CC(=O)Oc1cccc2c1C(=O)c1c(OC(C)=O)cc(C(=O)N3CCN(C4=C(Br)C(=O)O[C@@H]4O[C@@H]4C[C@H](C)CC[C@H]4C(C)C)CC3)cc1C2=O
IC50 at 48 h [1]: 24.9 µM
selectivity ratio [2]: 1

IC50 (A549): 46.5 µM
SMILES: CC(C)[C@@H]1CC[C@@H](C)C[C@H]1O[C@H]1OC(=O)C(Cl)=C1N1CCN(C(=O)c2cc(O)c3c(c2)C(=O)c2cccc(O)c2C3=O)CC1
IC50 at 48 h [1]: 296 µM
selectivity ratio [2]: 6

IC50 (A549): 117 µM
SMILES: CC(C)[C@@H]1CC[C@@H](C)C[C@H]1O[C@H]1OC(=O)C(Br)=C1N1CCN(C(=O)c2cc(O)c3c(c2)C(=O)c2cccc(O)c2C3=O)CC1
IC50 at 48 h [1]: 167 µM
selectivity ratio [2]: 1

IC50 (A549): 106 µM
SMILES: CC1(C)C2CCC1(C)[C@H](OC1OC(=O)C(Cl)=C1N1CCN(C(=O)c3cc(O)c4c(c3)C(=O)c3cccc(O)c3C4=O)CC1)C2 (some centres undefined)
IC50 at 48 h [1]: 173 µM
selectivity ratio [2]: 2

IC50 (A549): 5.49 µM
SMILES: COC1OC(=O)C(Br)=C1N1CCN(C(=O)c2cc(OC(C)=O)c3c(c2)C(=O)c2cccc(OC(C)=O)c2C3=O)CC1 (centres undefined)
IC50 at 48 h [1]: 39.1 µM
selectivity ratio [2]: 7

IC50 (A549): 115 µM
SMILES: CC(=O)Oc1cccc2c1C(=O)c1c(OC(C)=O)cc(C(=O)N3CCN(C4=C(Cl)C(=O)O[C@@H]4O[C@@H]4C[C@H](C)CC[C@H]4C(C)C)CC3)cc1C2=O
IC50 at 48 h [1]: 66.3 µM
selectivity ratio [2]: 1

IC50 (A549): 112 µM
SMILES: CC1(C)C2CCC1(C)[C@H](OC1OC(=O)C(Br)=C1N1CCN(C(=O)c3cc(O)c4c(c3)C(=O)c3cccc(O)c3C4=O)CC1)C2 (some centres undefined)
IC50 at 48 h [1]: 152 µM
selectivity ratio [2]: 1
